Data published in patent publication US20070248629A1, “PHARMACEUTICAL FORMULATIONS FOR IONTOPHORETIC DRUG DELIVERY” (priority 2006, published 2007).
Converted amounts (≈) assume the structure as drawn.

How the values were obtained:
[1] = Soluble acyclovir in acyclovir sodium gels by centrifugation and HPLC; conditions: for soluble species contributing to soluble acyclovir: 88 mole % sodium hydroxide, based on base charge / calculated by difference
Description: The presence or absence of a pellet was noted and an aliquot of the supernatant was removed for dilution and analysis by HPLC.
(§1) Essentially the same values are obtained from the propylene glycol/water formulations. […] The observed pH of the 88% neutralized solutions is weakly affected by the cosolvent to water ratio.

physchem [2] = assay: physchem
physchem [3] = conditions: pH 11
Description: as §1

[4] = pH 7; cited from earlier work
[5] = Solubility of acyclovir and sodium acyclovir in water and cosolvent mixtures; conditions: propylene glycol/water solution, aqueous with cosolvent or surfactant or cyclodextrin

Row | SMILES | soluble species contributing to soluble acyclovir ([1]; glycerin solutions) | solubility in gels with complete neutralization ([1]; 105 and 116 mole % sodium hydroxide) | solubility (physchem [2]; water) | soluble species contributing to soluble acyclovir ([1]; glycerin solutions, listed as neutral acyclovir) | soluble acyclovir (total) ([1]; partial neutralization (88 mole % sodium hydroxide), glycerin solutions) | pKa (physchem [3]) | solubility (physchem [2]; pH 7, aqueous with cosolvent or surfactant or cyclodextrin) | solubility in water [4] | solubility [5]
1 | Nc1nc2c(ncn2COCCO)c(=O)[nH]1 [sodium acyclovir] | 5.0% | greater than 5.7 weight percent | > 100000 µg/mL |  |  |  |  |  | 
2 | Nc1nc2c(ncn2COCCO)c(=O)[nH]1 [acyclovir] |  |  |  | 0.3% | 5.3% | 9.8 | 3000 µg/mL (≈ 13.3 mM) | 1300 µg/mL (≈ 5.77 mM) | 3000 µg/mL (≈ 13.3 mM)
